Measured values as given in ChEMBL document CHEMBL3046603, “Synthesis and antibacterial, antifungal activities of some 2r,4c-diaryl-3-azabicyclo[3.3.1]nonan-9-one-4-aminobenzoyl hydrazones” (2012).
In brackets after ≈: the same amount, converted by molar mass. Activity calls are given as the source filed them. The calls are words filed in the database; no cut-off is given here.

Experiments:
Cryptococcus neoformans [1] = experiment: Antifungal activity against Cryptococcus neoformans after 72 to 96 hr by two-fold serial dilution method; type: functional
Aspergillus niger = experiment: Antifungal activity against Aspergillus niger after 72 to 96 hr by two-fold serial dilution method; type: functional
Aspergillus flavus = experiment: Antifungal activity against Aspergillus flavus after 72 to 96 hr by two-fold serial dilution method; type: functional
Fusarium oxysporum = experiment: Antifungal activity against Fusarium oxysporum after 72 to 96 hr by two-fold serial dilution method; type: functional
Candida albicans = experiment: Antifungal activity against Candida albicans two-fold serial dilution method; type: functional
Staphylococcus aureus = experiment: Antibacterial activity against Staphylococcus aureus MTCC 96 after 24 hr two-fold serial dilution method; type: functional; settings: MTCC 96, 24 h
Bacillus subtilis = experiment: Antibacterial activity against Bacillus subtilis MTCC 121 after 24 hr two-fold serial dilution method; type: functional; settings: MTCC 121, 24 h
Klebsiella pneumoniae = experiment: Antibacterial activity against Klebsiella pneumoniae MTCC 2272 after 24 hr two-fold serial dilution method; type: functional; settings: MTCC 2272, 24 h
Pseudomonas aeruginosa = experiment: Antibacterial activity against Pseudomonas aeruginosa MTCC 741 after 24 hr two-fold serial dilution method; type: functional; settings: MTCC 741, 24 h
Salmonella typhi = experiment: Antibacterial activity against Salmonella enterica subsp. enterica serovar Typhi MTCC 531 after 24 hr two-fold serial dilution method; type: functional; settings: MTCC 531, 24 h
Vibrio cholerae = experiment: Antibacterial activity against Vibrio cholerae after 24 hr two-fold serial dilution method; type: functional
Escherichia coli = experiment: Antibacterial activity against Escherichia coli MTCC 443 after 24 hr two-fold serial dilution method; type: functional; settings: MTCC 443, 24 h
Salmonella typhimurium = experiment: Antibacterial activity against Salmonella enterica subsp. enterica serovar Typhimurium MTCC 98 after 24 hr two-fold serial dilution method; type: functional; settings: MTCC 98, 24 h
Cryptococcus neoformans [2] = experiment: Antifungal activity against Cryptococcus neoformans at 200 ug/ml after 72 to 96 hr by two-fold serial dilution method; type: functional, organism-based

Cc1ccc(C2NC(c3ccc(C)cc3)C3CCCC2C3=NNC(=O)c2ccc(N)cc2)cc1 (configuration not stated)
MIC (Cryptococcus neoformans [1]): 100 µg/mL (≈ 221 µM)
MIC (Aspergillus niger): 100 µg/mL (≈ 221 µM)
MIC (Aspergillus flavus): 200 µg/mL (≈ 442 µM)
MIC (Fusarium oxysporum): 100 µg/mL (≈ 221 µM)
MIC (Candida albicans): 200 µg/mL (≈ 442 µM)
MIC (Staphylococcus aureus): 200 µg/mL (≈ 442 µM)
MIC (Bacillus subtilis): 100 µg/mL (≈ 221 µM)
MIC (Klebsiella pneumoniae): 200 µg/mL (≈ 442 µM)
MIC (Pseudomonas aeruginosa): 200 µg/mL (≈ 442 µM)
MIC (Salmonella typhi): 100 µg/mL (≈ 221 µM)
MIC (Vibrio cholerae): 200 µg/mL (≈ 442 µM)
MIC (Escherichia coli): 100 µg/mL (≈ 221 µM)
MIC (Salmonella typhimurium): 200 µg/mL (≈ 442 µM)

Nc1ccc(C(=O)NN=C2C3CCCC2C(c2ccccc2Cl)NC3c2ccccc2Cl)cc1 (configuration not stated)
MIC (Cryptococcus neoformans [1]): 100 µg/mL (≈ 203 µM)
MIC (Aspergillus niger): 100 µg/mL (≈ 203 µM)
MIC (Aspergillus flavus): 200 µg/mL (≈ 405 µM)
MIC (Fusarium oxysporum): 100 µg/mL (≈ 203 µM)
MIC (Candida albicans): 200 µg/mL (≈ 405 µM)
MIC (Staphylococcus aureus): 200 µg/mL (≈ 405 µM)
MIC (Bacillus subtilis): 200 µg/mL (≈ 405 µM)
MIC (Klebsiella pneumoniae): 50 µg/mL (≈ 101 µM)
MIC (Pseudomonas aeruginosa): 100 µg/mL (≈ 203 µM)
MIC (Salmonella typhi): 100 µg/mL (≈ 203 µM)
MIC (Vibrio cholerae): 50 µg/mL (≈ 101 µM)
MIC (Escherichia coli): 100 µg/mL (≈ 203 µM)
MIC (Salmonella typhimurium): 50 µg/mL (≈ 101 µM)

CN[C@@H]1[C@H](O[C@H]2[C@H](O[C@H]3[C@H](O)[C@@H](O)[C@H](N=C(N)N)[C@@H](O)[C@@H]3N=C(N)N)O[C@@H](C)[C@]2(O)C=O)O[C@@H](CO)[C@H](O)[C@H]1O [STREPTOMYCIN]
MIC (Staphylococcus aureus): 25 µg/mL (≈ 43 µM)
MIC (Bacillus subtilis): 12.5 µg/mL (≈ 21.5 µM)
MIC (Klebsiella pneumoniae): 20 µg/mL (≈ 34.4 µM)
MIC (Pseudomonas aeruginosa): 50 µg/mL (≈ 86 µM)
MIC (Salmonella typhi): 25 µg/mL (≈ 43 µM)
MIC (Vibrio cholerae): 50 µg/mL (≈ 86 µM)
MIC (Escherichia coli): 50 µg/mL (≈ 86 µM)
MIC (Salmonella typhimurium): 25 µg/mL (≈ 43 µM)

C[C@@H]1[C@H](O)[C@@H](C)/C=C/C=C/C=C/C=C/C=C/C=C/C=C/[C@H](O[C@@H]2O[C@H](C)[C@@H](O)[C@H](N)[C@@H]2O)C[C@@H]2O[C@](O)(C[C@@H](O)C[C@@H](O)[C@H](O)CC[C@@H](O)C[C@@H](O)CC(=O)O[C@H]1C)C[C@H](O)[C@H]2C(=O)O [AMPHOTERICIN B]
MIC (Cryptococcus neoformans [1]): 25 µg/mL (≈ 27.1 µM)
MIC (Aspergillus niger): 50 µg/mL (≈ 54.1 µM)
MIC (Aspergillus flavus): 50 µg/mL (≈ 54.1 µM)
MIC (Fusarium oxysporum): 25 µg/mL (≈ 27.1 µM)
MIC (Candida albicans): 25 µg/mL (≈ 27.1 µM)

Nc1ccc(C(=O)NN=C2C3CCCC2C(c2ccc(Cl)cc2)NC3c2ccc(Cl)cc2)cc1 (configuration not stated)
MIC (Cryptococcus neoformans [1]): 200 µg/mL (≈ 405 µM)
MIC (Aspergillus niger): 50 µg/mL (≈ 101 µM)
MIC (Aspergillus flavus): 100 µg/mL (≈ 203 µM)
MIC (Fusarium oxysporum): 200 µg/mL (≈ 405 µM)
MIC (Candida albicans): 100 µg/mL (≈ 203 µM)
MIC (Staphylococcus aureus): 50 µg/mL (≈ 101 µM)
MIC (Bacillus subtilis): 50 µg/mL (≈ 101 µM)
MIC (Klebsiella pneumoniae): 200 µg/mL (≈ 405 µM)
MIC (Pseudomonas aeruginosa): 100 µg/mL (≈ 203 µM)
MIC (Salmonella typhi): 200 µg/mL (≈ 405 µM)
MIC (Vibrio cholerae): 100 µg/mL (≈ 203 µM)
MIC (Escherichia coli): 50 µg/mL (≈ 101 µM)
MIC (Salmonella typhimurium): 200 µg/mL (≈ 405 µM)

COc1ccc(C2NC(c3ccc(OC)cc3)C3CCCC2C3=NNC(=O)c2ccc(N)cc2)cc1 (configuration not stated)
MIC (Cryptococcus neoformans [1]): 200 µg/mL (≈ 413 µM)
MIC (Aspergillus niger): 100 µg/mL (≈ 206 µM)
MIC (Aspergillus flavus): 50 µg/mL (≈ 103 µM)
MIC (Fusarium oxysporum): 100 µg/mL (≈ 206 µM)
MIC (Candida albicans): 200 µg/mL (≈ 413 µM)
MIC (Staphylococcus aureus): 100 µg/mL (≈ 206 µM)
MIC (Bacillus subtilis): 100 µg/mL (≈ 206 µM)
MIC (Klebsiella pneumoniae): 200 µg/mL (≈ 413 µM)
MIC (Pseudomonas aeruginosa): 200 µg/mL (≈ 413 µM)
MIC (Salmonella typhi): 100 µg/mL (≈ 206 µM)
MIC (Vibrio cholerae): 50 µg/mL (≈ 103 µM)
MIC (Escherichia coli): 100 µg/mL (≈ 206 µM)
MIC (Salmonella typhimurium): 200 µg/mL (≈ 413 µM)

Nc1ccc(C(=O)NN=C2C3CCCC2C(c2ccccc2)NC3c2ccccc2)cc1 (configuration not stated)
Activity (Cryptococcus neoformans [2]): inactive
MIC (Aspergillus flavus): 200 µg/mL (≈ 471 µM)
MIC (Fusarium oxysporum): 200 µg/mL (≈ 471 µM)
MIC (Staphylococcus aureus): 200 µg/mL (≈ 471 µM)
MIC (Bacillus subtilis): 100 µg/mL (≈ 236 µM)
MIC (Klebsiella pneumoniae): 50 µg/mL (≈ 118 µM)
MIC (Pseudomonas aeruginosa): 200 µg/mL (≈ 471 µM)
MIC (Salmonella typhi): 200 µg/mL (≈ 471 µM)
MIC (Vibrio cholerae): 100 µg/mL (≈ 236 µM)
MIC (Escherichia coli): 200 µg/mL (≈ 471 µM)
MIC (Salmonella typhimurium): 200 µg/mL (≈ 471 µM)

Nc1ccc(C(=O)NN=C2C3CCCC2C(c2ccc(Br)cc2)NC3c2ccc(Br)cc2)cc1 (configuration not stated)
MIC (Cryptococcus neoformans [1]): 100 µg/mL (≈ 172 µM)
MIC (Aspergillus niger): 50 µg/mL (≈ 85.9 µM)
MIC (Aspergillus flavus): 100 µg/mL (≈ 172 µM)
MIC (Fusarium oxysporum): 100 µg/mL (≈ 172 µM)
MIC (Candida albicans): 200 µg/mL (≈ 343 µM)
MIC (Staphylococcus aureus): 50 µg/mL (≈ 85.9 µM)
MIC (Bacillus subtilis): 200 µg/mL (≈ 343 µM)
MIC (Klebsiella pneumoniae): 200 µg/mL (≈ 343 µM)
MIC (Pseudomonas aeruginosa): 50 µg/mL (≈ 85.9 µM)
MIC (Salmonella typhi): 50 µg/mL (≈ 85.9 µM)
MIC (Vibrio cholerae): 200 µg/mL (≈ 343 µM)
MIC (Escherichia coli): 100 µg/mL (≈ 172 µM)
MIC (Salmonella typhimurium): 200 µg/mL (≈ 343 µM)

Nc1ccc(C(=O)NN=C2C3CCCC2C(c2ccc(F)cc2)NC3c2ccc(F)cc2)cc1 (configuration not stated)
MIC (Cryptococcus neoformans [1]): 200 µg/mL (≈ 434 µM)
MIC (Aspergillus niger): 100 µg/mL (≈ 217 µM)
MIC (Aspergillus flavus): 200 µg/mL (≈ 434 µM)
MIC (Fusarium oxysporum): 50 µg/mL (≈ 109 µM)
MIC (Candida albicans): 100 µg/mL (≈ 217 µM)
MIC (Staphylococcus aureus): 50 µg/mL (≈ 109 µM)
MIC (Bacillus subtilis): 25 µg/mL (≈ 54.3 µM)
MIC (Klebsiella pneumoniae): 50 µg/mL (≈ 109 µM)
MIC (Pseudomonas aeruginosa): 200 µg/mL (≈ 434 µM)
MIC (Salmonella typhi): 100 µg/mL (≈ 217 µM)
MIC (Vibrio cholerae): 50 µg/mL (≈ 109 µM)
MIC (Escherichia coli): 100 µg/mL (≈ 217 µM)
MIC (Salmonella typhimurium): 100 µg/mL (≈ 217 µM)
